Consider one substance from publication PMC4019984, “Kinase and channel activity of TRPM6 are co-ordinated by a dimerization motif and pocket interaction” (Biochemical Journal, 2014).

The test system of test [1] is GST-tagged TRPM6-(1730–end) Q1832K. Briefly: Peptide pull-down, Q1832K mutant. Type of test: binding, human. Conditions: HEK-293 lysate, 3 μg peptide, 4°C, anti-GST immunoblot. Here is the method: The peptides biotin-C6-[…]-TIPFTPVQLFAGEEITV (wild-type) and biotin-C6-LKSPQE-[…] (mutant) were purchased from GL Biochem. For a peptide pull-down, 1–5 mg of lysate was incubated with 3 μg of the respective peptide for 10 min at 4°C under gentle agitation, followed by 5 min of incubation with 10–20 μl of streptavidin beads at 4°C. The immunoprecipitates were washed three times with lysis buffer containing 0.15 M NaCl and then twice with buffer A. Proteins were eluted by resuspending washed immunoprecipitates in 30 μl of SDS sample buffer. […]
Figure 3 Analysis of the dimerization pocket residues (A) Structural model of TRPM6 based on TRPM7 α-kinase depicting the binding of Leu^1718 and Leu^1721 to other residues in the α-kinase domain. […] The samples were analysed by immunoblotting with anti-GST antibody (top panel). […] (C) Fluorescence polarization analysis of the dimerization motif peptide with E. coli purified GST-tagged TRPM6-(1730–end) and indicated mutants. […] Proteins were separated by SDS/PAGE, stained with Coomassie Blue (top and middle panels) and MBP phosphorylation was detected by autoradiography (bottom panel). […] Proteins were separated by SDS/PAGE, stained with Coomassie Blue (top and middle gels) and MBP phosphorylation was detected by autoradiography (bottom gel). […]
A general note: In western blotting, separated proteins are transferred to a membrane and probed.

Test [2] has as its system full-length TRPM6 L1718A+L1721A. Nature of the test: Peptide pull-down, full-length TRPM6 L1718A+L1721A. It is filed as binding, human. Conditions: full-length L1718A+L1721A TRPM6, HEK-293 lysate, 3 μg peptide, 4°C; anti-FLAG immunoblot. Here is the method:
The peptides biotin-C6-[…]-TIPFTPVQLFAGEEITV (wild-type) and biotin-C6-LKSPQE-[…] (mutant) were purchased from GL Biochem. For a peptide pull-down, 1–5 mg of lysate was incubated with 3 μg of the respective peptide for 10 min at 4°C under gentle agitation, followed by 5 min of incubation with 10–20 μl of streptavidin beads at 4°C. The immunoprecipitates were washed three times with lysis buffer containing 0.15 M NaCl and then twice with buffer A. Proteins were eluted by resuspending washed immunoprecipitates in 30 μl of SDS sample buffer.
Figure 2 Identification of dimerization motif residues in TRPM6 (A) Structural model of TRPM7 α-kinase depicting the N-terminal non-catalytic α-helix of one monomer that interacts with the kinase segment of the other monomer. (B) Fluorescence polarization analysis of wild-type (WT) and mutant (Mut) dimerization motif peptides with E. coli-purified GST-tagged TRPM6-(1730–end). […] The samples were analysed by immunoblotting with anti-GST antibody (top panel). […] Proteins were separated by SDS/PAGE, stained with Coomassie Blue (top and middle gels) and MBP phosphorylation was detected by autoradiography (bottom gel). […] Proteins were separated by SDS/PAGE, stained with Coomassie Blue (top and middle gels) and MBP phosphorylation was detected by autoradiography (bottom gel). […] The pull-down samples were analysed by immunoblotting with anti-FLAG antibody (top panel). […]

“biotin-C6-LKSPQEPHHHYSAIERNNLMRLSQ-TIPFTPVQLFAGEEITV [biotinylated dimerization motif peptide, biotin-C6 wild-type dimerization motif peptide; conjugated to streptavidin–Sepharose]”: the “binding to biotinylated dimerization motif peptide (pull-down)” value in test [1] is recorded as “abolished binding to the peptide”. Also, the “interaction with biotinylated dimerization motif peptide (pull-down)” value in test [2] is listed as “rendered capable of interacting”.
